Our source for the DC50 values is patent US11479556B1, “Bifunctional compounds for degrading BTK via ubiquitin proteosome pathway” (NURIX THERAPEUTICS, INC., priority 2018, dated 2022).

Structures are written as SMILES.

The target in one assay is T1, Aiolos (Homo sapiens, UniProt Q96SW2+Q9UKT9).
T1 construct: Frozen human peripheral blood mononuclear cells (PBMCs) were thawed and treated with DMSO or compound for 24 hours; endogenous in cells; host or cells: human PBMCs (T cells gated CD3+CD20-)
In words: Aiolos degradation flow cytometry assay in human PBMCs (T cells). Conditions: 24 hours, T cells (CD3+CD20-), read-out: Aiolos T Cell DC50. The class given is cell-based. On the procedure:
Example 67: Aiolos Degradation Assay
Frozen human peripheral blood mononuclear cells (PBMCs) were thawed and treated with DMSO or compound for 24 hours and then fixed and permeabilized using a Foxp3/Transcription Factor Fixation/Permeabilization Kit (eBioscience, 00-5523). Cells were stained with fluorophore-conjugated antibodies against CD20 (Biolegend 302330), CD3 (BD Pharmingen 552127), and Aiolos (Biolegend 371106). An additional set of DMSO-treated PBMCs was stained for CD20, CD3, and an AlexaFluor 647-conjugated mouse IgG1 isotype control antibody (Biolegend 400136). Stained cells were analyzed using an Attune NxT Acoustic Focusing Flow Cytometer (Thermo-Fisher A29004), and data was analyzed using FlowJo (v10.5.3) and GraphPad Prism (v7.00) software. Single lymphocytes were gated for B cells (CD20+CD3−) and T cells (CD3+CD20−), and the geometric mean fluorescence intensity (MFI) of Aiolos was calculated for each population. The MFI of the isotype control was calculated for each population and used to quantify background staining. Percent Aiolos degradation was calculated for each compound-treated sample using the following equation: […]
Four-parameter non-linear regressions were performed in GraphPad Prism 7.02 to obtain DC50 values. Aiolos T Cell DC50 values are provided in Table 4, wherein A<10.0 nM, 10.0 nM≤B≤1000 nM, and 1000 nM<C.
On the technique in general: A flow cytometer gives signals particle by particle.

In a further assay the target is T2, BTK (Homo sapiens, UniProt Q06187).
T2 construct: endogenous in cells; host or cells: TMD8 cells
In words: Cellular BTK HTRF assay (BTK degradation) in TMD8 cells. It is filed as cell-based. Conditions: four hours incubation, Total-BTK HTRF relative to DMSO-treated cells. A digest of the protocol: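 TMD8 cells were treated with compounds (final DMSO <0.200) for four hours at 37° C, 5% CO2, then lysed for 30 minutes. Total BTK was measured by two-antibody HTRF, taking the 665/620 nm ratio with background subtracted and expressed relative to DMSO-treated cells. DC50 came from four-parameter nonlinear regression.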
A general note: TR-FRET usually uses a lanthanide donor and a delayed reading to cut background.

T1 sequence (Q9UKT9 whole entry): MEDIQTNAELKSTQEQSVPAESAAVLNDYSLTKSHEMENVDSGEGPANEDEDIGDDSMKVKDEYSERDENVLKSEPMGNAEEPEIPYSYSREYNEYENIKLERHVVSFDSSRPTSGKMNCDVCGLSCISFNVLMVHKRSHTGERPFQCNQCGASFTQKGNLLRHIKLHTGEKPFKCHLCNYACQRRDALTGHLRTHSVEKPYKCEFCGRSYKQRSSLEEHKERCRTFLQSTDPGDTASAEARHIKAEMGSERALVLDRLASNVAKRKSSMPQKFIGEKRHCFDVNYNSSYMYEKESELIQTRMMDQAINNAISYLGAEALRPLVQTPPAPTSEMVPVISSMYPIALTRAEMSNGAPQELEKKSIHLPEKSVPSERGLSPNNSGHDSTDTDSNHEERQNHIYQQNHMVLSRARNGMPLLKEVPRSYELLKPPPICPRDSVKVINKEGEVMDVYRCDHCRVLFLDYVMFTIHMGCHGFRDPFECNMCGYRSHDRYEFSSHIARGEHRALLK
T1 sequence (Q96SW2 whole entry): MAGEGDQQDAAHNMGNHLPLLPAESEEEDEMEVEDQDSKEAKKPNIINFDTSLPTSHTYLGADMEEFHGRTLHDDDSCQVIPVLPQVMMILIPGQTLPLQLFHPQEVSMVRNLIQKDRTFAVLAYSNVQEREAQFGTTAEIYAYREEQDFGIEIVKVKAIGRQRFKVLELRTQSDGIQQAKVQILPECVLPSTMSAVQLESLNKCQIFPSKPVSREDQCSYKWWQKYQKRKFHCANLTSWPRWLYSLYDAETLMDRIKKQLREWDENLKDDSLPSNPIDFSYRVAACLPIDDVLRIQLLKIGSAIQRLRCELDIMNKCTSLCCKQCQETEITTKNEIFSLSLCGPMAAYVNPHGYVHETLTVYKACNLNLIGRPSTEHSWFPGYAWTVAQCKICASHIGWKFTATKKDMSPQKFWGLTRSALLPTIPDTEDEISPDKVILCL
T1 sequence (Q16531 whole entry partner): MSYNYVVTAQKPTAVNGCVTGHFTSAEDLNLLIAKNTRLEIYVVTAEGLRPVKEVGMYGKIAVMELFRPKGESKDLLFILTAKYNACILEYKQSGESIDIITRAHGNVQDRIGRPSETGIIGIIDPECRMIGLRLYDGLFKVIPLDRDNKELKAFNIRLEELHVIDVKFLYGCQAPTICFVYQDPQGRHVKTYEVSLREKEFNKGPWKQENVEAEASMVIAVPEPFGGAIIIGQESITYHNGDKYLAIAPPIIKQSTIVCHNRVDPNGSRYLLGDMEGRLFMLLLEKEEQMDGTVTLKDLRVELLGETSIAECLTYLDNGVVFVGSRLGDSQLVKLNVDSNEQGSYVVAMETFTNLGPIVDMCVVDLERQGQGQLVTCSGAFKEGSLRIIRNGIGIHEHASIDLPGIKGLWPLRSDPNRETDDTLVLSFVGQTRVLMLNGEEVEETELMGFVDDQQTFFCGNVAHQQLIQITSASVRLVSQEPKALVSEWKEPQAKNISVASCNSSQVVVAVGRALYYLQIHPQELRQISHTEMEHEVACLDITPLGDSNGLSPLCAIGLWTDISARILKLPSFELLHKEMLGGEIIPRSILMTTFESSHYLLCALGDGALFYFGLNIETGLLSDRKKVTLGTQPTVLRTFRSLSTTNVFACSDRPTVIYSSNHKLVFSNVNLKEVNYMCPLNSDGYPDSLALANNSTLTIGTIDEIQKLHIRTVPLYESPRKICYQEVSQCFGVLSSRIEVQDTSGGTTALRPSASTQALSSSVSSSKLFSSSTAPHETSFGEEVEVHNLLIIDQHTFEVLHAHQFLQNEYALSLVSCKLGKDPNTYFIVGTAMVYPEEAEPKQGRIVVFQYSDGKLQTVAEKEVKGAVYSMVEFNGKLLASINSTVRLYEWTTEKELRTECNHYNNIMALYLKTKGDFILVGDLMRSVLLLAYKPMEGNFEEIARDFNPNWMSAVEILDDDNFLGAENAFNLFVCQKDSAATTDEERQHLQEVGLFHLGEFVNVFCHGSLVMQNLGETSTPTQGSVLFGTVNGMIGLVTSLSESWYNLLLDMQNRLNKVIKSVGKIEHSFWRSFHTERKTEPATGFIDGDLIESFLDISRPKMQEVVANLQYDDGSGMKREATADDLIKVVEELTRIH
T2 sequence (Q06187 whole entry): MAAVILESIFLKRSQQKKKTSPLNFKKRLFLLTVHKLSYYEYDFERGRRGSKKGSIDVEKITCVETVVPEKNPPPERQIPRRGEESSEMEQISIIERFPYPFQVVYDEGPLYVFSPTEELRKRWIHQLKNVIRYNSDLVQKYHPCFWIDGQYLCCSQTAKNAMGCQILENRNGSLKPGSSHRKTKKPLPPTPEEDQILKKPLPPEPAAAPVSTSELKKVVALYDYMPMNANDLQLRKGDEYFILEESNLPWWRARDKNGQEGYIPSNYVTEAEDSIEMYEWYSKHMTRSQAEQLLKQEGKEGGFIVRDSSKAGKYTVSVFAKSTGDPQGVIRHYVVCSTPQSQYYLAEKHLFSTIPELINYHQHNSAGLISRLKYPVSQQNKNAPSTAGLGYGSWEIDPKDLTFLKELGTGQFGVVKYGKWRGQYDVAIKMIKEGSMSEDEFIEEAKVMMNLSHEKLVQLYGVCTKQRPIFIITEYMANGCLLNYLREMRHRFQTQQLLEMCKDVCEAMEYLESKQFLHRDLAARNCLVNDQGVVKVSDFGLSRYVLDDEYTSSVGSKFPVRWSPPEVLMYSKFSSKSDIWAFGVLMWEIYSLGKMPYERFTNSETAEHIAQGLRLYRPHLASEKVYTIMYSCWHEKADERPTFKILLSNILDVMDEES

The DC50 is the concentration at which degradation of the target reaches its halfway point. Consider `CN1CCN([C@@H]2CCCN(c3cnc(C(N)=O)c(Nc4ccc(C5(C)CCN(C(=O)CCOCCC(=O)Nc6cccc7c6CN(C6CCC(=O)NC6=O)C7=O)CC5)cc4)n3)C2)C1=O` (some centres unmarked) [Compound 14], for which the DC50 is above 1000 nM on Aiolos and above 15 nM at BTK.
Consider `CN1CCN([C@@H]2CCCN(c3cnc(C(N)=O)c(Nc4ccc(N5CCN(CCCCc6cccc7c6CN(C6CCC(=O)NC6=O)C7=O)CC5)cc4)n3)C2)C1=O` (some centres unmarked) [Compound 17], for which the DC50 is 10 to 1000 nM at Aiolos and below 5 nM on BTK.
On the same counts, the results for `CN1CCN([C@@H]2CCCN(c3cnc(C(N)=O)c(Nc4ccc(C5CCN(C(=O)CCOCCNc6cccc7c6C(=O)N(C6CCC(=O)NC6=O)C7=O)CC5)cc4)n3)C2)C1=O` (some centres unmarked) [Compound 25] are below 10 nM and 5 to 15 nM.
On to `CN1CCN([C@@H]2CCCN(c3cnc(C(N)=O)c(Nc4ccc(N5CCC6(CCCN(c7ccc8c(c7)C(=O)N(C7CCC(=O)NC7=O)C8=O)C6)CC5)cc4)n3)C2)C1=O` (some centres unmarked) [Compound 29], for which the DC50 at Aiolos is above 1000 nM; on BTK, below 5 nM.
On the same counts, the results for `CN1CCN([C@@H]2CCCN(c3cnc(C(N)=O)c(Nc4ccc5c(c4)CCN(C4CN(c6ccc7c(c6)C(=O)N(C6CCC(=O)NC6=O)C7=O)C4)C5)n3)C2)C1=O` (some centres unmarked) [Compound 30] are below 10 nM and 5 to 15 nM.
Regarding `CN1CCN([C@@H]2CCCN(c3cnc(C(N)=O)c(Nc4ccc5c(c4)CCN(CC4CCN(c6ccc7c(c6)C(=O)N(C6CCC(=O)NC6=O)C7=O)CC4)C5)n3)C2)C1=O` (some centres unmarked) [Compound 31], the 50% degradation concentration (DC50) was 10 to 1000 nM on Aiolos and below 5 nM at BTK.
As for `CN1CCN([C@@H]2CCCN(c3cnc(C(N)=O)c(Nc4ccc(N5CC6(C5)CN(c5ccc7c(c5)C(=O)N(C5CCC(=O)NC5=O)C7=O)C6)cc4)n3)C2)C1=O` (stereo partly drawn) [Compound 34, 3-((4-(6-(2-(2,6-dioxopiperidin-3-yl)-1,3-dioxoisoindolin-5-yl)-2,6-diazaspiro[3.3]heptan-2-yl)phenyl)amino)-5-((R)-3-(3-methyl-2-oxoimidazolidin-1-yl)piperidin-1-yl)pyrazine-2-carboxamide], the DC50 is 10 to 1000 nM at Aiolos and below 5 nM at BTK.
The matching figures for `CN1CCN([C@@H]2CCCN(c3cnc(C(N)=O)c(Nc4ccc(C5CN(C6CCN(c7ccc8c(c7)C(=O)N(C7CCC(=O)NC7=O)C8=O)CC6)C5)cc4)n3)C2)C1=O` (some centres unmarked) [Compound 37]: 10 to 1000 nM and below 5 nM.
On to `CN1CCN([C@@H]2CCCN(c3cnc(C(N)=O)c(Nc4ccc(N5CCN(C[C@@H]6[C@H]7CN(c8ccc9c(c8)C(=O)N(C8CCC(=O)NC8=O)C9=O)C[C@@H]67)CC5)cc4)n3)C2)C1=O` (some centres unmarked) [Compound 38], for which the DC50 on Aiolos was 10 to 1000 nM; at BTK, below 5 nM.
For the compound `CN1CCN([C@@H]2CCCN(c3cnc(C(N)=O)c(Nc4ccc(C5CCN(CC6CCN(c7ccc8c(c7)C(=O)N(C7CCC(=O)NC7=O)C8=O)CC6)CC5)cc4)n3)C2)C1=O` (some centres unmarked) [Compound 51], the DC50 on Aiolos is 10 to 1000 nM; on BTK, below 5 nM.
On the same counts, the results for `CN1CCN([C@@H]2CCCN(c3cnc(C(N)=O)c(Nc4ccc(C5CCN(C6CN(c7ccc8c(c7)C(=O)N(C7CCC(=O)NC7=O)C8=O)C6)CC5)cc4)n3)C2)C1=O` (some centres unmarked) [Compound 53] are 10 to 1000 nM and below 5 nM.
On to `CN1CCN([C@@H]2CCCN(c3cnc(C(N)=O)c(Nc4ccc(N5CCN(C(=O)CCOCCCc6ccc7c(c6)C(=O)N(C6CCC(=O)NC6=O)C7)CC5)cc4)n3)C2)C1=O` (some centres unmarked) [Compound 61], for which the DC50 was above 1000 nM at Aiolos and below 5 nM on BTK.
In the case of `CN1CCN([C@@H]2CCCN(c3cnc(C(N)=O)c(Nc4ccc(OCCCNc5ccc6c(c5)C(=O)N(C5CCC(=O)NC5=O)C6=O)cc4)n3)C2)C1=O` (some centres unmarked) [Compound 64], the DC50 is 10 to 1000 nM on Aiolos and above 15 nM on BTK.
In the case of `CN1CCN([C@@H]2CCCN(c3cnc(C(N)=O)c(Nc4ccc(C5(C)CCN(C6CN(Cc7ccc8c(c7)C(=O)N(C7CCC(=O)NC7=O)C8=O)C6)CC5)cc4)n3)C2)C1=O` (some centres unmarked) [Compound 75], the DC50 on Aiolos is above 1000 nM; at BTK, below 5 nM.
In the case of `CN1CCN([C@H]2CCCN(c3cnc(C(N)=O)c(Nc4cnn(C5CCN(CC6CN(c7ccc8c(c7)C(=O)N(C7CCC(=O)NC7=O)C8=O)C6)CC5)c4)n3)C2)C1=O` (some centres unmarked) [Compound 78], the results for the DC50 on Aiolos and at BTK were 10 to 1000 nM and below 5 nM, respectively.
Regarding `CN1CCN([C@H]2CCCN(c3cnc(C(N)=O)c(Nc4ccc5c(c4)CCN(CC4CN(c6ccc7c(c6)C(=O)N(C6CCC(=O)NC6=O)C7=O)C4)C5)n3)C2)C1=O` (some centres unmarked) [Compound 92], the DC50 is below 10 nM at Aiolos and 5 to 15 nM on BTK.
The matching figures for `CN1CCN([C@H]2CCCN(c3cnc(C(N)=O)c(Nc4ccc(N5CCN(CC#Cc6cccc7c6CN(C6CCC(=O)NC6=O)C7=O)CC5)cc4)n3)C2)C1=O` (some centres unmarked) [Compound 99]: above 1000 nM and below 5 nM.
For `NC(=O)c1ncc(N2CCCCC2)nc1Nc1ccc(N2CCC3(CCN(Cc4ccc5c(c4)C(=O)N(C4CCC(=O)NC4=O)C5=O)CC3)CC2)cc1` (centres unmarked) [Compound 123], the DC50 is above 1000 nM at Aiolos and 5 to 15 nM at BTK.
Regarding `CN1CCN([C@@H]2CCCN(c3cnc(C(N)=O)c(Nc4ccc(C5CCN(CCCNc6cccc7c6C(=O)N(C6CCC(=O)NC6=O)C7=O)CC5)cc4)n3)C2)C1=O` (some centres unmarked) [Compound 155], the DC50 is 10 to 1000 nM on Aiolos and below 5 nM on BTK.
The matching figures for `CN1CCN([C@@H]2CCCN(c3cnc(C(N)=O)c(Nc4ccc(C5CCN(CC6CCN(c7ccc8c(c7)n(C)c(=O)n8C7CCC(=O)NC7=O)CC6)CC5)cc4)n3)C2)C1=O` (some centres unmarked) [Compound 156]: below 10 nM and below 5 nM.
On to `CN1CCN(c2cnc(C(N)=O)c(Nc3ccc(C4CCN(C[C@H]5CCN(c6ccc7c(c6)C(=O)N(C6CCC(=O)NC6=O)C7=O)C5)CC4)cc3)n2)CC1` (some centres unmarked) [Compound 157], for which the values for the DC50 on Aiolos and at BTK were above 1000 nM and 5 to 15 nM, respectively.
On the same counts, the results for `CN1CCN([C@@H]2CCCN(c3cnc(C(N)=O)c(Nc4ccc(C5CCN(CC6CCN(c7ccc(OC8CCC(=O)NC8=O)cn7)CC6)CC5)cc4)n3)C2)C1=O` (some centres unmarked) [Compound 166] are above 1000 nM and below 5 nM.
Consider `Cc1ncsc1-c1ccc([C@H](C)NC(=O)[C@@H]2C[C@@H](O)CN2C(=O)[C@@H](NC(=O)CCCCCCCC(=O)N2CCC(c3ccc(Nc4nc(N5CCC[C@@H](N6CCN(C)C6=O)C5)cnc4C(N)=O)cc3)CC2)C(C)(C)C)cc1` [Compound 188], for which the DC50 on BTK is above 15 nM.
In turn, `Cc1ncsc1-c1ccc([C@H](C)NC(=O)[C@@H]2C[C@@H](O)CN2C(=O)[C@@H](NC(=O)CCCCCC(=O)N2CCC(c3ccc(Nc4nc(N5CCC[C@@H](N6CCN(C)C6=O)C5)cnc4C(N)=O)cc3)CC2)C(C)(C)C)cc1` [Compound 189] came in with a DC50 at BTK above 15 nM.
Consider `CN1CCN([C@@H]2CCCN(c3cnc(C(N)=O)c(Nc4ccc(C5CCN(CC6CCN(c7ccc(CC8CCC(=O)NC8=O)cn7)CC6)CC5)cc4)n3)C2)C1=O` (some centres unmarked) [Compound 190], for which the DC50 at BTK lay in the range of 5 to 15 nM.
As to `NC(=O)c1ncc(N2CCCCC2)nc1Nc1ccc(C2CCN(CC3CCN(c4ncc(C(=O)NC5CCC(=O)NC5=O)o4)CC3)CC2)cc1` (centres unmarked) [Compound 191], the 50% degradation concentration (DC50) at BTK fell in the range of 5 to 15 nM.
Consider `CN1CCN([C@@H]2CCCN(c3cnc(C(N)=O)c(Nc4ccc(C5CCN(CC6CCN(c7ncc(C(=O)NC8CCC(=O)NC8=O)o7)CC6)CC5)cc4)n3)C2)C1=O` (some centres unmarked) [Compound 192], for which the DC50 at BTK was below 5 nM.
In turn, `NC(=O)c1ncc(N2CCC[C@@H](CO)C2)nc1Nc1ccc(C2CCN(C[C@@H]3CCN(c4ccc5c(c4)C(=O)N(C4CCC(=O)NC4=O)C5=O)C3)CC2)cc1` (some centres unmarked) [Compound 193] had a DC50 at BTK below 5 nM.
